Active and inactive are the calls of the source.
Key:
Exportin-1 [1] = target: T1, Exportin-1 (Homo sapiens, UniProt O14980); assay: Binding affinity to recombinant His-tagged CRM1 (unknown origin) by SPR analysis
[2] = Cytotoxicity activity against human SNK6 cells assessed as GSH:GSSG ratio at 1 uM incubated for 48 hrs by GSH and GSSG assay kit method; assay type: cell-based
Exportin-1 [3] = target: T1, Exportin-1; assay: Reversible inhibition of CRM1 in human 293T cells assessed as increase in translocation of NES-GFP to […] at 4 uM incubated for 2 hrs by confocal laser scanning microscopy; assay type: cell-based
HCT-15 = assay: Antiproliferative activity against CRM1 siRNA […] human HCT15 cells assessed as reduction in cell viability incubated for 24 hrs; assay type: functional, cell-based; conditions: HCT-15, 24 h
Homo sapiens = species on record: Homo sapiens; assay: Binding affinity to recombinant His-tagged IkBalpha (unknown origin) by SPR analysis
[4] = target: Kelch-like ECH-associated protein 1 (Homo sapiens) (UniProt Q14145); assay: Binding affinity to recombinant His-tagged Keap1 (unknown origin) by SPR analysis
Mus musculus [5] = assay: Anti-inflammatory activity against DSS-induced ulcerative colitis C57BL/6J mouse model assessed as reduction in body weight loss at 3 and 30 mg/kg, po administered for 7 days and measured daily; assay type: functional, organism-based
Mus musculus [6] = assay: Anti-inflammatory activity against DSS-induced ulcerative colitis C57BL/6J mouse model assessed as reduction in colon shortening at 3 and 30 mg/kg, po administered for 7 days and measured daily; assay type: functional, organism-based
Mus musculus [7] = assay: Anti-inflammatory activity against DSS-induced ulcerative colitis C57BL/6J mouse model assessed as reduction in diarrhea at 3 and 30 mg/kg, po administered for 7 days and measured daily; assay type: functional, organism-based
Mus musculus [8] = assay: Anti-inflammatory activity against DSS-induced ulcerative colitis C57BL/6J mouse model assessed as preservation of colon mucosal architecture at 3 and 30 mg/kg, po administered for 7 days and measured on day 7 by […] and eosin staining based microscopic analysis; assay type: functional, organism-based
Mus musculus [9] = assay: Anti-inflammatory activity against DSS-induced ulcerative colitis C57BL/6J mouse model assessed as reduction in colon swelling at 3 and 30 mg/kg, po administered for 7 days and measured on day 7 by […] and eosin staining based microscopic analysis; assay type: functional, organism-based
Mus musculus [10] = assay: Anti-inflammatory activity against DSS-induced ulcerative colitis C57BL/6J mouse model assessed as reduction in colon inflammation at 3 and 30 mg/kg, po administered for 7 days and measured on day 7 by […] and eosin staining based microscopic analysis; assay type: functional, organism-based
Mus musculus [11] = assay: Anti-inflammatory activity against DSS-induced ulcerative colitis C57BL/6J mouse model assessed as reduction in colon ulceration at 3 and 30 mg/kg, po administered for 7 days and measured on day 7 by […] and eosin staining based microscopic analysis; assay type: functional, organism-based
Mus musculus [12] = assay: Anti-inflammatory activity against DSS-induced ulcerative colitis C57BL/6J mouse model assessed as reduction in colitis orally administered for 7 days and measured on day 7 by […] and eosin staining based microscopic analysis; assay type: functional, organism-based
Mus musculus [13] = assay: Anti-inflammatory activity against DSS-induced ulcerative colitis C57BL/6J mouse model assessed as re-epithelialization of colon at 3 and 30 mg/kg, po administered for 7 days and measured on day 7 by […] and eosin staining based microscopic analysis; assay type: functional, organism-based
Mus musculus [14] = assay: Anti-inflammatory activity against DSS-induced ulcerative colitis C57BL/6J mouse model assessed as reduction in body weight loss at 10 mg/kg, po administered for 7 days and measured daily; assay type: functional, organism-based
Mus musculus [15] = assay: Anti-inflammatory activity against DSS-induced ulcerative colitis C57BL/6J mouse model assessed as reduction in diarrhea at 10 mg/kg, po administered for 7 days and measured daily; assay type: functional, organism-based
Mus musculus [16] = assay: Anti-inflammatory activity against DSS-induced ulcerative colitis C57BL/6J mouse model assessed as restoration of colon length at 10 mg/kg, po administered for 7 days and measured on day 7; assay type: functional, organism-based
Mus musculus [17] = assay: Anti-inflammatory activity against DSS-induced ulcerative colitis C57BL/6J mouse model assessed as reduction in colon swelling at 10 mg/kg, po administered for 7 days and measured on day 7; assay type: functional, organism-based
Mus musculus [18] = assay: Anti-inflammatory activity against DSS-induced ulcerative colitis C57BL/6J mouse model assessed as reduction in colon inflammation at 10 mg/kg, po administered for 7 days and measured on day 7; assay type: functional, organism-based
Mus musculus [19] = assay: Anti-inflammatory activity against DSS-induced ulcerative colitis C57BL/6J mouse model assessed as reduction in colon ulceration at 10 mg/kg, po administered for 7 days and measured on day 7; assay type: functional, organism-based
Mus musculus [20] = assay: Anti-inflammatory activity against DSS-induced ulcerative colitis C57BL/6J mouse model assessed as reduction in TNFalpha production at 10 mg/kg, po administered for 7 days and measured on day 7 by ELISA; assay type: functional, organism-based
Mus musculus [21] = assay: Anti-inflammatory activity against DSS-induced ulcerative colitis C57BL/6J mouse model assessed as reduction in IL-1beta production at 10 mg/kg, po administered for 7 days and measured on day 7 by ELISA; assay type: functional, organism-based
Mus musculus [22] = assay: Anti-inflammatory activity against DSS-induced ulcerative colitis C57BL/6J mouse model assessed as reduction in IL-6 production at 10 mg/kg, po administered for 7 days and measured on day 7 by ELISA; assay type: functional, organism-based
Mus musculus [23] = assay: Anti-inflammatory activity against DSS-induced ulcerative colitis C57BL/6J mouse model assessed as reduction in IL-23 production at 10 mg/kg, po administered for 7 days and measured on day 7 by ELISA; assay type: functional, organism-based
Mus musculus [24] = assay: Anti-inflammatory activity against DSS-induced ulcerative colitis C57BL/6J mouse model assessed as restoration of damaged colon mucosal layer at 10 mg/kg, po administered for 7 days and measured on day 7 by ELISA; assay type: functional, organism-based
Mus musculus [25] = assay: Anti-inflammatory activity against DSS-induced ulcerative colitis C57BL/6J mouse model assessed as reduction in impairment of epithelial barrier genes at 30 mg/kg, po administered for 7 days and measured on day 7 by proteomic analysis; assay type: functional, organism-based
Mus musculus [26] = assay: Anti-inflammatory activity against DSS-induced ulcerative colitis C57BL/6J mouse model assessed as reduction in impairment of wound healing genes at 30 mg/kg, po administered for 7 days and measured on day 7 by proteomic analysis; assay type: functional, organism-based
Mus musculus [27] = assay: Anti-inflammatory activity against DSS-induced ulcerative colitis C57BL/6J mouse model assessed as reduction in impairment of immune response genes at 30 mg/kg, po administered for 7 days and measured on day 7 by proteomic analysis; assay type: functional, organism-based
Mus musculus [28] = assay: Anti-inflammatory activity against DSS-induced ulcerative colitis C57BL/6J mouse model assessed as reduction in impairment of inflammatory response genes at 30 mg/kg, po administered for 7 days and measured on day 7 by proteomic analysis; assay type: functional, organism-based
Mus musculus [29] = assay: Anti-inflammatory activity against DSS-induced ulcerative colitis C57BL/6J mouse model assessed as reduction in impairment of host defense genes at 30 mg/kg, po administered for 7 days and measured on day 7 by proteomic analysis; assay type: functional, organism-based
Mus musculus [30] = assay: Anti-inflammatory activity against DSS-induced ulcerative colitis C57BL/6J mouse model assessed as reduction in impairment of T-cell receptor signalling genes at 30 mg/kg, po administered for 7 days and measured on day 7 by proteomic analysis; assay type: functional, organism-based
Mus musculus [31] = assay: Anti-inflammatory activity against DSS-induced ulcerative colitis C57BL/6J mouse model assessed as reduction in impairment of cell-cell adhesion genes at 30 mg/kg, po administered for 7 days and measured on day 7 by proteomic analysis; assay type: functional, organism-based
Mus musculus [32] = assay: Anti-inflammatory activity against DSS-induced ulcerative colitis C57BL/6J mouse model assessed as reduction in impairment of NF-kappaB signalling genes at 30 mg/kg, po administered for 7 days and measured on day 7 by proteomic analysis; assay type: functional, organism-based
Mus musculus [33] = assay: In vivo inhibition of NFkappaB in C57BL/6J mouse DSS-induced ulcerative colitis model assessed as increase in accumulation of IkBalpha in nucleus at 400 nM, po by confocal microscopy; assay type: functional, organism-based
Mus musculus [34] = assay: In vivo inhibition of NFkappaB in C57BL/6J mouse DSS-induced ulcerative colitis model assessed as increase in accumulation of NRF2 in nucleus at 400 nM, po by confocal microscopy; assay type: functional, organism-based
Mus musculus [35] = assay: In vivo inhibition of NFkappaB in C57BL/6J mouse DSS-induced ulcerative colitis model assessed as reduction in NFkappaB p65 expression at 10 and 30 mg/kg, po administered for 7 days and measured on day 7 by Western blot analysis; assay type: functional, organism-based
Mus musculus [36] = assay: Anti-inflammatory activity against DSS-induced ulcerative colitis C57BL/6J mouse model assessed as reduction in COX-2 production at 10 mg/kg, po administered for 7 days and measured on day 7 by ELISA; assay type: functional, organism-based
Mus musculus [37] = assay: In vivo inhibition of NFkappaB in C57BL/6J mouse DSS-induced ulcerative colitis model assessed as reduction in NQO1 expression at 10 and 30 mg/kg, po administered for 7 days and measured on day 7 by Western blot analysis; assay type: functional, organism-based
Mus musculus [38] = assay: In vivo inhibition of NFkappaB in C57BL/6J mouse DSS-induced ulcerative colitis model assessed as increase in Nrf2 expression at 10 and 30 mg/kg, po administered for 7 days and measured on day 7 by Western blot analysis; assay type: functional, organism-based
Mus musculus [39] = assay: In vivo inhibition of NFkappaB in C57BL/6J mouse DSS-induced ulcerative colitis model assessed as increase in HO1 expression at 10 and 30 mg/kg, po administered for 7 days and measured on day 7 by Western blot analysis; assay type: functional, organism-based
Mus musculus [40] = assay: In vivo inhibition of NFkappaB in C57BL/6J mouse DSS-induced ulcerative colitis model assessed as downregulation of MRP8 expression at 10 and 30 mg/kg, po administered for 7 days and measured on day 7 by Western blot analysis; assay type: functional, organism-based
Mus musculus [41] = assay: In vivo inhibition of NFkappaB in C57BL/6J mouse DSS-induced ulcerative colitis model assessed as downregulation of MRP14 expression at 10 and 30 mg/kg, po administered for 7 days and measured on day 7 by Western blot analysis; assay type: functional, organism-based
Mus musculus [42] = assay: In vivo inhibition of NFkappaB in C57BL/6J mouse DSS-induced ulcerative colitis model assessed as restoration of occludin expression at 10 and 30 mg/kg, po administered for 7 days and measured on day 7 by Western blot analysis; assay type: functional, organism-based
[43] = Stability of compound in artificial intestinal juice assessed as half life; assay type: ADME
[44] = Permeability in human Caco2 cells at 10 uM incubated for 4 hrs by LC-MS/MS analysis; assay type: ADME, cell-based; conditions: caco-2, 4 h
[45] = Stability of compound in artificial gastric juice assessed as half life; assay type: ADME
[46] = Acute toxicity in C57BL/6 mouse assessed as lethargy at 300 to 600 mg/kg, po administered for 7 days and measured on day 7; assay type: organism-based; conditions: in vivo, 168 h
[47] = Acute toxicity in C57BL/6 mouse assessed as weight loss at 300 to 600 mg/kg, po administered for 7 days and measured on day 7; assay type: organism-based; conditions: in vivo, 168 h
[48] = Acute toxicity in C57BL/6 mouse assessed as sickness indication at 300 to 600 mg/kg, po administered for 7 days and measured on day 7; assay type: organism-based; conditions: in vivo, 168 h
[49] = Toxicity in C57BL/6 mouse assessed as effect on colon at 300 to 600 mg/kg, po administered for 7 days and measured on day 14; assay type: organism-based; conditions: in vivo, 168 h
[50] = Toxicity in C57BL/6 mouse assessed as effect on spleen at 300 to 600 mg/kg, po administered for 7 days and measured on day 14; assay type: organism-based; conditions: in vivo, 168 h
[51] = target: Voltage-gated inwardly rectifying potassium channel KCNH2 (Homo sapiens, UniProt Q12809); assay: Inhibition of human ERG expressed in human HEK293 cells by whole cell patch clamp assay; assay type: cell-based
Voltage-gated inwardly rectifying potassium channel KCNH2, sequence (Q12809 whole entry): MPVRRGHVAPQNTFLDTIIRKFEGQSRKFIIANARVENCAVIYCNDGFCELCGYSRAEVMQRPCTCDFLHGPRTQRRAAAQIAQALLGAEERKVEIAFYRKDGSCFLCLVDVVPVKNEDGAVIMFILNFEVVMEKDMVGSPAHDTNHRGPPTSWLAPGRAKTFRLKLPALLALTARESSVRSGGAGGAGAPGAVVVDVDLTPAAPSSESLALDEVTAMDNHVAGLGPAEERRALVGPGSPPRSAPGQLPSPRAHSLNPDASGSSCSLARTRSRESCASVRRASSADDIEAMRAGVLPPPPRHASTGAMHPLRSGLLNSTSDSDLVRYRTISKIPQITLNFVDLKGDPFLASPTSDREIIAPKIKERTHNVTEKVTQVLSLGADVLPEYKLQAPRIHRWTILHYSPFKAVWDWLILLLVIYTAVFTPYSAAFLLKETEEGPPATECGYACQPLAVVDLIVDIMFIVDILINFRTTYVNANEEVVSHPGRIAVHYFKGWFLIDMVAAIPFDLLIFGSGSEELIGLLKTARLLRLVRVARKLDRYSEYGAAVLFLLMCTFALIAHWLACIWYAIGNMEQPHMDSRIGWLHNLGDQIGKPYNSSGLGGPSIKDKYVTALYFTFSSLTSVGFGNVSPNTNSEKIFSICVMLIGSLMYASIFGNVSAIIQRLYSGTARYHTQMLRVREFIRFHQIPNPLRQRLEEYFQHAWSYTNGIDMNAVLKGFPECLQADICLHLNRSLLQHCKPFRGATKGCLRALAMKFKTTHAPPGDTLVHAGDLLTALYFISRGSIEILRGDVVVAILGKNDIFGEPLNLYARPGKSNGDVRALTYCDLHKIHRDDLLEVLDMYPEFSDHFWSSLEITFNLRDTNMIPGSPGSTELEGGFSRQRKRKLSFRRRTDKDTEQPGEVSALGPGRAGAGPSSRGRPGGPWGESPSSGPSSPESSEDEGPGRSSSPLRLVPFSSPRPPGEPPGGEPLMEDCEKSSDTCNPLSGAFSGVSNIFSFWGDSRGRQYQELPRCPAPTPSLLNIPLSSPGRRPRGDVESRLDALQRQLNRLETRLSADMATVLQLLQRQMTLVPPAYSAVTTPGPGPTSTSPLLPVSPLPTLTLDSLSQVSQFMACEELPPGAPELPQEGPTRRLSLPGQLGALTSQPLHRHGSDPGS

T1 sequence (O14980 whole entry): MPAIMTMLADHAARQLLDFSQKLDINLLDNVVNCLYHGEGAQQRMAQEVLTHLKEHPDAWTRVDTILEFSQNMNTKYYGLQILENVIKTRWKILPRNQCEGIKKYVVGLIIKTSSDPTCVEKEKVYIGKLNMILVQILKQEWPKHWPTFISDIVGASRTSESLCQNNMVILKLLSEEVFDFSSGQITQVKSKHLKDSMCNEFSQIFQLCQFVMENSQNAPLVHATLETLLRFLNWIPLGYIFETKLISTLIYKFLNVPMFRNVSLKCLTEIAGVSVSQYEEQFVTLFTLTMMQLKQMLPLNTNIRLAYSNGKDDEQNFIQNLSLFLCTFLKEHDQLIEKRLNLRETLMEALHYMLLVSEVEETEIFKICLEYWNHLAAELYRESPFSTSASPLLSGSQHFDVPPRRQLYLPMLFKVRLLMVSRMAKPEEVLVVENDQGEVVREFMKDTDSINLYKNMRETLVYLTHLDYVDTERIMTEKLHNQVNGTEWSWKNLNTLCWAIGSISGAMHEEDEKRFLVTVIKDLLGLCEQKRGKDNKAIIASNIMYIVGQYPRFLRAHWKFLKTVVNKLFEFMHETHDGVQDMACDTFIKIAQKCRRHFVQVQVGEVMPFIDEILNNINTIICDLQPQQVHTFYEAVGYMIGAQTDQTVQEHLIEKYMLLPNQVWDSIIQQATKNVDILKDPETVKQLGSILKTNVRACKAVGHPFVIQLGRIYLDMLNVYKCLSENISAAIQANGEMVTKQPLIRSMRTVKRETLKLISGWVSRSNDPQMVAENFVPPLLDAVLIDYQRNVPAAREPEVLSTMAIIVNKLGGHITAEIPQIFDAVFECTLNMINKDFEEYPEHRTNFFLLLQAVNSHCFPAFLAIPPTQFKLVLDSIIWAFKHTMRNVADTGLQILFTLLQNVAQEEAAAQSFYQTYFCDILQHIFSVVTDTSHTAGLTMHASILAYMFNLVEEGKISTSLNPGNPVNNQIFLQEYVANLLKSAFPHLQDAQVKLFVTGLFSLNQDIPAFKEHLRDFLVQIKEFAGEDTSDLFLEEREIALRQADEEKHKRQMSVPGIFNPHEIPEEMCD
Kelch-like ECH-associated protein 1 (Homo sapiens), sequence (Q14145 whole entry): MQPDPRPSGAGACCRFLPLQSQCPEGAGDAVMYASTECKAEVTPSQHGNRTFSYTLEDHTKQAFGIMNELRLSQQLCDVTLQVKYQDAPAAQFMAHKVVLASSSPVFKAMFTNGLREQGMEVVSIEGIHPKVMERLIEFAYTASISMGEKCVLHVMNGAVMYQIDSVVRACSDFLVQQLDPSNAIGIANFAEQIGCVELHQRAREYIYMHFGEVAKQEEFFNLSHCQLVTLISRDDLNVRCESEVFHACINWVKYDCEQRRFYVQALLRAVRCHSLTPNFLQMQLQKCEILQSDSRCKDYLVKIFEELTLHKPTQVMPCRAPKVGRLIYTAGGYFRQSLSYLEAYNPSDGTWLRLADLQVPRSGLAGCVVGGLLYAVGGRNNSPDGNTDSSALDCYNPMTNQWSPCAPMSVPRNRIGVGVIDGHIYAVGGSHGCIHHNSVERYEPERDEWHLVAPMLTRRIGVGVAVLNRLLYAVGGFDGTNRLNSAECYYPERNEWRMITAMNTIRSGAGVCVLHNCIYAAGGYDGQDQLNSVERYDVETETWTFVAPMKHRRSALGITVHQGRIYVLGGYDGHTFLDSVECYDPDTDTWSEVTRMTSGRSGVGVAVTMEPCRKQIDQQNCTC

[O-][S@@+](/C=C/CCN=C=S)c1cc(C(F)(F)F)cc(C(F)(F)F)c1
8 h: half-life [43]
active: Activity (Mus musculus [5]) | Activity (Mus musculus [6]) | Activity (Mus musculus [7]) | Activity (Mus musculus [8]) | Activity (Mus musculus [9]) | Activity (Mus musculus [10]) | Activity (Mus musculus [11]) | Activity (Mus musculus [12]) Dose-dependent effect | Activity (Mus musculus [13]) | Activity (Mus musculus [14]) | Activity (Mus musculus [15]) | Activity (Mus musculus [16]) | Activity (Mus musculus [17]) | Activity (Mus musculus [18]) | Activity (Mus musculus [19]) | Activity (Mus musculus [20]) | Activity (Mus musculus [21]) | Activity (Mus musculus [22]) | Activity (Mus musculus [23]) | Activity (Mus musculus [24]) | Activity (Mus musculus [25]) | Activity (Mus musculus [26]) | Activity (Mus musculus [27]) | Activity (Mus musculus [28]) | Activity (Mus musculus [29]) | Activity (Mus musculus [30]) | Activity (Mus musculus [31]) | Activity (Mus musculus [32]) | inhibition (Mus musculus [33]) | inhibition (Mus musculus [34]) | inhibition (Mus musculus [35]) | Activity (Mus musculus [36]) | inhibition (Mus musculus [37]) | inhibition (Mus musculus [38]) | inhibition (Mus musculus [39]) | inhibition (Mus musculus [40]) | inhibition (Mus musculus [41]) | inhibition (Mus musculus [42])
14.7 µM: IC50 (HCT-15)
100%: inhibition (Exportin-1 [3])
24 h: half-life [45]
inactive: Activity (Homo sapiens) | Activity [4]
> 30 µM: IC50 [51]
Non-Toxic: Activity [2] | Activity [46] | Activity [47] | Activity [48] | Activity [49] | Activity [50]
Permeable: permeability [44]
0.0269 µM: Kd (Exportin-1 [1])

Nc1ccc(O)c(C(=O)O)c1
inactive: Activity (Mus musculus [8]) | Activity (Mus musculus [9]) | Activity (Mus musculus [10]) | Activity (Mus musculus [11]) | Activity (Mus musculus [13])

From ChEMBL document CHEMBL4402590, “Small-Molecule Antagonist Targeting Exportin-1 via Rational Structure-Based Discovery” (J Med Chem, 2020)
